Laboratory results taken from patent US6562359B2, “Pest repellent” (Sumitomo Chemical Company, Ltd., priority 1997, dated 2003).

Tests used:
Assay type in all cases: in vivo
Tineola bisselliella = assay: Test Example 6: entrance inhibition in treated carton with wool muslin; details: Tineola bisselliella female adults; 1 mg/cup (carton with wool muslin)
From the text: Insect entrance inhibition rate (%)={(number of insects attracted into the non-treated section−number of insects attracted into the treated section)/number of insects attracted into the non-treated section}×100 A lower end of a 4.5 cm×4.5 cm×4.5 cm carton was cut out to form a 0.5 cm×4.5 cm entrance of insects. A filter paper (2 cm×2 cm) impregnated with an acetone-diluted solution of the test substance was placed in the carton, and a 1 cm×1 cm piece of wool muslin was laid on said filter paper. This carton was set at a corner of a nylon gauze-made cage (20 cm×20 cm×30 cm), and a carton containing a filter paper not treated with hyssop oil and having wool muslin laid thereon was set at the diagonally opposite corner of the cage. About 60 female adults of Tineola bisselliella one to 2 days old after emergence were released in the cage, and the number of the insects which entered the cartons was counted. The test was conducted on a two-replication system.

Clogmia albipunctata = assay: Test Example 5: entrance inhibition in treated cup, in the dark; details: 30 mg/cup, 2 hours after setting
[1] = system: mosquitoes (Culex pipiens pallens); assay: Test Example 2: mosquito entrance inhibition in treated cup, overnight luring; details: 3.0 mg/cup, tacky trap in cup
[2] = system: houseflies (Musca domestica); assay: Test Example 3: housefly entrance inhibition in treated cup; details: 100 mg/cup, powder milk and sugar lure
Meqaselia spiracularis = assay: Test Example 4: entrance inhibition in treated cup, maggot rearing medium lure; details: 100 mg/cup, 30 minutes after setting
[3] = system: mosquitoes (Aedes aegypti); assay: Test Example 1: mosquito entrance inhibition in treated cup; details: Aedes aegypti females; 0.3 mg/cup on filter paper; counted 10 minutes after setting; disposal warmer lure
Method: A lower side part of a plastic cup (base diameter: 10 cm; top opening diameter: 12 cm; height: 7 cm; capacity: about 650 ml) was cut out to form a 2 cm square entrance of mosquitoes. At the center of said cup was placed a twofold disposal warmer (Kiribai New Hand Warmer, 24-hour type, 13.5×10 cm) as a lure for mosquitoes. A 9 cm-diameter filter paper was treated with a 1 ml solution of the test substance diluted with acetone to a predetermined concentration, and after acetone was air dried, said filter paper was attached to the inside of the cover of said cup with a double-side adhesive tape. This cover was fitted on said cup, allowing the test substance to volatilize and diffuse in the cup for one minute.
In a nylon gauze-made cage (50 cm×50 cm×50 cm) holding about 600 mosquitoes (Aedes aegypti) one to 2 weeks old after emergence (sex ratio=ca. 1:1), 2 said cups were placed cater-cornered across the cage, each of said cups being positioned about 10 cm away from the cage corner, to lure the mosquitoes. […] 10 minutes after setting the cups at said positions in the cage, each cup was taken out of the cage and the number of the female insects attracted into the cup was counted. Based on the obtained result, the insect entrance inhibition rate was calculated from the following equation: […]

CCN(CC)C(=O)c1cccc(C)c1 [DEET, N,N-diethyl-m-toluamide]
Entrance inhibition rate (Tineola bisselliella): 9.5%
Entrance inhibition rate (Clogmia albipunctata): 50%
Entrance inhibition rate [1]: −10%
Entrance inhibition rate [2]: 34%
Entrance inhibition rate (Meqaselia spiracularis): 34%
Entrance inhibition rate [3]: 38%
